Test results reported in US20250171511A1, “ANTIVIRAL PEPTIDES AND METHODS OF USE THEREOF” (Versitech Limited, priority 2021, published 2025).
“Also recorded” adds a separate entry of the source. Like-named read-outs stand apart in the source and are kept apart here. Where no end group is shown, it is not given here. 4MPA = not defined here

Columns and labels:
[1] = test system: HRV-1B; assay: HRV-1B infection, supernatant viral RNA by RT-qPCR; assay type: cell-based; details: RD or H1-Hela cells, 30 hpi
Description: (§1) Viruses were treated by 4H30 for infection in RD or H1-Hela cells. Viruses, HRV-1B and HRV-B14 were treated by 4H30 in PBS for 30 min and then the treated viruses were added to RD or H1-Hela cells for infection. After 1 h infection, the un-infected viruses were removed and fresh media with the indicated concentration of 4H30 was added to cells for viral culture. The supernatant viruses were measured at 30 hpi by RT-qPCR. Viral RNA copy (%) was the viral RNA of 4H30-treated virus normalized to that of untreated virus (0). […] The primers for detecting the viral RNA copies: HRV-F1: 5′-[…] -3′; HRV-F2: 5′-[…] -3′, HRV-R: 5′-[…] -3′; HRV-Probe: 5′ HEX-[…] -1ABKFQ 3′ (Y=C or T, K=G or T). The supernatant viruses were measured at 30 hpi.

[2] = ELISA binding of 4H30 to heparan sulfate; details: compared with BSA
[3] = test system: SARS-CoV-2 (B.1.163); assay: Post-exposure antiviral activity in hamsters, B.1.163; details: hamster, in vivo
[4] = test system: SARS-CoV-2; assay: Antiviral activity of GAG-treated 4H30 (viral RNA copy); assay type: cell-based
[5] = test system: Calu-3 cells; assay: MTT cytotoxicity assay in Calu-3 cells; assay type: cell-based
Description: Cytotoxicity of peptides was determined by the detection of 50% cytotoxic concentration (CC50) using a tetrazolium-based colorimetric MTT assay (H. Zhao, et al., Sci Rep, 6 (2016) 22008). Briefly, cells were seeded in 96-well cell culture plate at an initial density of 4×10^4 cells per well in DMEM supplemented with 10% FBS and incubated for overnight. Cell culture media were removed and then DMEM supplemented with various concentrations of peptides and 1% FBS were added to each well. After 24 h incubation at 37° C., MTT solution (5 mg ml^−1, 10 μl per well) was added to each well for incubation at 37° C. for 4 h. Then, 100 μl of 10% SDS in 0.01M HCl was added to each well. After further incubation at room temperature with shaking overnight, the plates were read at OD570 using VictorTM X3 Multilabel Reader (PerkinElmer, USA). Cell culture wells without peptides were used as the experiment control and medium only served as a blank control.

[6] = intranasal
[7] = test system: SARS-CoV-2; assay: Viral attachment/entry and replication in VeroE6 cells by RT-qPCR; assay type: cell-based
[8] = test system: SARS-CoV-2; assay type: cell-based
[9] = test system: fusion mediated by spike-Calu-3 cells; assay: Spike mediated cell fusion assay with Calu-3 cells; assay type: cell-based; details: TMPRSS2 pathway
[10] = test system: H1N1 virus; assay: H1N1 plaque reduction assay; assay type: cell-based; details: virus treated in PBS 30 min, VeroE6
[11] = test system: SARS-CoV-2; assay: Nucleoprotein (NP) immunofluorescence assay; assay type: cell-based; details: VeroE6; virus pretreated; compared with untreated virus
[12] = test system: HRV-B14; assay: HRV-B14 infection, supernatant viral RNA by RT-qPCR; assay type: cell-based; details: RD or H1-Hela cells, 30 hpi
Description: as §1

[13] = test system: SARS-CoV-2; assay: Viral release assay; assay type: cell-based
[14] = test system: SARS-CoV-2 (B.1.1.63); assay: Post-infection treatment, viral titers in supernatants; details: 4H30 added at 6 hpi
[15] = test system: SARS-CoV-2; assay: Plaque reduction assay against SARS-CoV-2; assay type: cell-based
Description: Briefly, peptides were dissolved in PBS or 30mM phosphate buffer (PBS/5) containing 24.6 mM Na2HPO4 and 5.6 mM KH2PO4 at a pH of 7.4. Peptides or bovine serum albumin (BSA, 0.2-25.0 μg ml^−1) were premixed with SARS-CoV-2 at room temperature. After 45-60 min of incubation, peptide-virus mixture was transferred to Vero-E6 cells, correspondingly. At 1 h post infection, infectious media were removed, and 1% low melting agar was added to cells. Cells were fixed using 4% formalin at 2-3 day post infection. […] (0.1%) was added for staining, and the number of plaques was counted.

[16] = target: spike and ACE2 (Severe acute respiratory syndrome coronavirus 2, UniProt P0DTC2); details: ELISA
Description: (§2) For determining spike and ACE2 binding, 60 ng S or ACE2 in PBST was incubated with peptides at 37° C. for 30 min.

[17] = test system: VeroE6 cells; assay: Endosomal acidification assay; assay type: cell-based
Description: Endosomal acidification was detected with a pH-sensitive dye (pHrodo green dextran, Invitrogen, Cat^# P35365) according to the manufacturer's instructions as previously described but with slight modification (H. Zhao, et al., Nat Commun, 9 (2018) 2358). First, VeroE6 cells were treated with DMEM, 4H30 (25.0 μg ml^−1), or bafilomycin A1 (50.0 nM) at 4° C. for 15 min. Second, VeroE6 cells were added with 100 μg ml^−1 of pH-sensitive dye and DAPI and then incubated at 4° C. for 15 min. Before taking images, cells were further incubated at 37° C. for 15 min and then cells were washed twice with PBS. Finally, PBS was added to cells and images were taken immediately with confocal microscope (Carl Zeiss LSM 800, Germany).

[18] = test system: SARS-CoV-2; assay: SARS-CoV-2 replication in Calu-3 cells pretreated by 4H30; assay type: cell-based
[19] = target: spike (Severe acute respiratory syndrome coronavirus 2, UniProt P0DTC2); details: ELISA
Description: as §2

[20] = test system: SARS-CoV-2 (B.1. 617.2, Delta); assay: Post-exposure antiviral activity in hamsters, Delta; assay type: in vivo, hamster; details: 0.5 mg kg^−1, post exposure

For “GAICHPVFCPRRYKQIGTCGLPGTKCCKKP-4MPA (cysteine pairing not given here; reading uncertain; also: printed as GAICHPVFCPRRYKQIGTCGLPGTKCCKKP-4MPA) [Peptide 4H30]”, the “inhibition of HRV-1B, viral RNA copy” value [1] was “effectively inhibited”, the “binding to heparan sulfate (HS)” value [2] was “effectively bind” and the “SARS-CoV-2 replication in lungs” value [3] was “significantly inhibit”. For the same substance, the “antiviral activity of GAG-treated 4H30” value ([4]; 4H30 treated by 1250 ng/ml of CS or HS) was “significantly reduced”, the “antiviral activity of GAG-treated 4H30” value ([4]; CS or HS in physiological concentration (50˜100 ng/ml)) was “still significantly inhibit viral replication” and the TC50 [5] was “higher than 400 μg ml^−1”. For the same substance, the “pathological and body weight changes” value ([6]; 4 dpi) was “did not cause pathological and body weight changes”, the “histopathological and body weight changes” value ([6]; 40 dpi, compared with mock) was “no significant histopathological and body weight changes” and the “viral load increase at 6 hpi compared with 1 hpi” value [7] was 13 fold. The “viral attachment and/or entry” value ([7]; cells pretreated by 4H30) was “significantly increased”, the “viral attachment and/or entry” value ([7]; virus pretreated by 4H30) was “significantly increased” and the “SARS-CoV-2 attachment to cells” value ([7]; at 4 degrees) was “increase SARS-CoV-2 attachment”. The “viral load at 6 hpi compared with 1 hpi” value ([7]; cell lysate, virus pretreated by 4H30) was “no significant increase in viral load”, the “attachment of SARS-CoV-2 to cells” value ([8]; 4H30 pretreated by GAGs) was “significantly reduced” and the “attachment of SARS-CoV-2 to cells” value ([8]; A549 (ACE2^−) cells treated by 4H30) was “significantly increased”. The “attachment of SARS-CoV-2 to cells” value ([8]; Calu-3 (ACE2^+) cells treated by 4H30) was “significantly increased”, the “attachment of SARS-CoV-2 to cells” value ([8]; cells pretreated by Chondroitinase ABC and Heparinase) was “significantly reduced” and the “fusion mediated by spike-Calu-3 cells” value [9] was “did not inhibit”. The H1N1 virus replication [10] was “significantly inhibited”, the “anti-NP staining, viral replication” value [11] was “viral replication was significantly inhibited and restricted in very few cells” and the “inhibition of HRV-B14, viral RNA copy” value [12] was “effectively inhibited”. The intracellular replicative process [13] was “not on the intracellular replicative process”, the “viral release, viral load in supernatants” value [13] was “significantly inhibit viral release; also recorded: significantly inhibited SARS-CoV-2 release” and the “antiviral activity of 4H30 on viral release” value ([13]; 4H30 pretreated by CS or HS) was “significantly reduced”. The “inhibitory activity of 4H30 on SARS-CoV-2 release” value ([13]; 4H30 with BSA) was “did not significantly affect”, the SARS-CoV-2 replication ([14]; Calu-3 cells) was “significantly inhibited” and the SARS-CoV-2 replication ([14]; VeroE6 cells) was “significantly inhibited”. For the same substance, the IC50 ([15]; virus premixed with peptide in PBS, plaque reduction) was 0.59 µg/mL, the “SARS-CoV-2 infection after dilution of treated virus” value ([15]; virus pretreated by 50 μg ml^−1, then 10,000-fold diluted (0.005 μg ml^−1)) was “significantly inhibited SARS-CoV-2 infection” and the “binding between spike and ACE2” value [16] was “did not significantly affect”. The endosomal acidification [17] was “inhibition of endosomal acidification”, the SARS-CoV-2 replication [18] was “did not increase SARS-CoV-2 replication” and the binding to spike [19] was “more effectively bound to spike when compared with ACE2”. The “SARS-CoV-2 replication in hamsters” value [20] was “significantly inhibited” and the “syncytium formation and bronchial epithelial pathology in lungs” value [20] was “reduced the syncytium formation and bronchial epithelial pathology”.
